Test [1] concerns phosphorylation of the IRF-3 protein in MDA-MB-468 cells. As to the kind of experiment: pIRF3 immunocytochemistry cell based assay. The conditions noted are these: Homo sapiens. The procedure, abridged:
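MDA-MB-468 cells got compounds (10-point, 3-fold from 10 uM) for 1 h at 37 °C, then 10 ug/ml Poly(I:C) for 2 h. Fixed, permeabilized cells were immunostained for pIRF3 with AlexaFluor488 and counterstained with PI. % phosphorylation was read by laser scanning cytometry, and IC50 curves were fitted.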

For another test, the target named is T1, TBK1 (Homo sapiens, UniProt Q9UHD2).
T1 sequence (Q9UHD2 1-729): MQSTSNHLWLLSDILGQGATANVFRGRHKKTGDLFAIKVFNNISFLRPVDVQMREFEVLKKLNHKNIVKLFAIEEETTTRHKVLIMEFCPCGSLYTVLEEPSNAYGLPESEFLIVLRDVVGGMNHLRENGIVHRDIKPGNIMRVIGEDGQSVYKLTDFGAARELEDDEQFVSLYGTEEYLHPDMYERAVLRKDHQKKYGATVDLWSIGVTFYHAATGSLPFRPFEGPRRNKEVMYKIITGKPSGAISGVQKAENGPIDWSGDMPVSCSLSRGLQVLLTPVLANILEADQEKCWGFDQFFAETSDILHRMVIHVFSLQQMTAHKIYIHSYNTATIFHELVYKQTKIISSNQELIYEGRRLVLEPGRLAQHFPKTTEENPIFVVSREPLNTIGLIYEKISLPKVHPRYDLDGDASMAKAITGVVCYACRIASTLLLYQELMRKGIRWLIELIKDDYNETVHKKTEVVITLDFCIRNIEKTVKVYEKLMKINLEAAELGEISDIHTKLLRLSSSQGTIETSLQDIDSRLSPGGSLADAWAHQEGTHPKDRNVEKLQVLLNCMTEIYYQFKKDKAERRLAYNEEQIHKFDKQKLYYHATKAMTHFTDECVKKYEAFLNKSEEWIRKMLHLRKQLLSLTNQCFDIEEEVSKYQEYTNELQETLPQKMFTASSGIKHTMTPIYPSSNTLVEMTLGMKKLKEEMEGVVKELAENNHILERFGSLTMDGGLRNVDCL
Briefly: TBK Biochemical Assay. The conditions noted are these: read-out: TBK1 IC50. In short, it runs like this: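 TBK1 enzyme and substrate incubated with compounds (10-point 1:4 dilution, top 30 uM final, 1% DMSO) for 90 min at 25° C, then stopped. Substrate/product peaks read by microfluidic mobility-shift (Caliper LabChip); 10 uM staurosporine as full-inhibition control.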

In another test the target is T2, IKKε (Homo sapiens, UniProt Q14164).
T2 sequence (Q14164 1-716): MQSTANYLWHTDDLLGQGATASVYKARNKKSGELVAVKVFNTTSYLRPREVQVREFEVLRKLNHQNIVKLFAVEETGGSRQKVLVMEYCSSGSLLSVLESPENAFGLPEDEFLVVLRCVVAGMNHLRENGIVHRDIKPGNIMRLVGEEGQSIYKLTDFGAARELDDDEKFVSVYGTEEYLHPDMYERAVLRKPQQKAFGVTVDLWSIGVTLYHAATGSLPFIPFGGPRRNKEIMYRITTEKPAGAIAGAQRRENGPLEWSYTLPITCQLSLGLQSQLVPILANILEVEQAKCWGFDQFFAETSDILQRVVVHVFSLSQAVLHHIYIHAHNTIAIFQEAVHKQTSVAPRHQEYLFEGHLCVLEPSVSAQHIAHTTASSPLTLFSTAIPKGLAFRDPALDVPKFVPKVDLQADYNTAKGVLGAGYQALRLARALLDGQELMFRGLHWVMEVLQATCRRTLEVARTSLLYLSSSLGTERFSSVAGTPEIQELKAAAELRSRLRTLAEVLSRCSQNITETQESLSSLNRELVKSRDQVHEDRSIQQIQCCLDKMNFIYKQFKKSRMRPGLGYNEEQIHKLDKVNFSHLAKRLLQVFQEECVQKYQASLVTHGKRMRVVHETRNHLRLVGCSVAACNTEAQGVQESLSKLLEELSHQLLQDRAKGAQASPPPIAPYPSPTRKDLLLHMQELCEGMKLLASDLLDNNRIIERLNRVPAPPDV
As to the kind of experiment: IKKe Biochemical Assay. The settings on record: read-out: IKKε IC50. In short, it runs like this: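 Recombinant IKKε and substrate were incubated with compound (10-point 1:4 series, top 30 uM final, 1% DMSO) for 90 min at 25° C, then stopped. Substrate-to-product conversion was read by LabChip microfluidic mobility shift; 10 uM staurosporine served as full-inhibition wells.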

The mark [2] stands for this setting: MDA-MB-468 cells, Poly(I:C) stimulation, read-out: pIRF3 IC50.
Where [3] appears, read: MDA-MB-468, read-out: pIRF3 IC50.

Structures can show the parent of a compound that is named as a salt. Where two headings read alike, the source gives them in different places.

One may read the IC50 as the concentration needed to halve the response being measured. As to `COc1cc(C(=O)N(C)CCO)cnc1-c1cc2nccc(-c3ccc(NC4CCOCC4)c(C#N)n3)c2o1` [Compound 356, 6-(7-[6-cyano-5-[(oxan-4-yl)amino]pyridin-2-yl]furo[3,2-b]pyridin-2-yl)-N-(2-hydroxyethyl)-5-methoxy-N-methylpyridine-3-carboxamide], the IC50 is 100 to 1000 nM in test [1] (setting [2]), under 100 nM on TBK1 and under 100 nM on IKKε.

For `COc1cc(C(=O)NC2CN(C(C)C)C2)ccc1-c1cc2nccc(-c3ccc(OC4CCOCC4)c(C#N)c3)c2o1` [Compound 364, 4-(7-(3-cyano-4-(tetrahydro-2H-pyran-4-yloxy)phenyl)furo[3,2-b]pyridin-2-yl)-N-(1-isopropylazetidin-3-yl)-3-methoxybenzamide], the IC50 in test [1] (setting [2]) was 100 to 1000 nM; on TBK1, under 100 nM; on IKKε it was under 100 nM.

Take `COc1cc(C(=O)NC2(C)CCCN(C)C2)ccc1-c1cc2nccc(-c3ccc(OC4CCOCC4)c(C#N)c3)c2o1` (stereo not drawn) [Compound 367, 4-[7-[3-cyano-4-(oxan-4-yloxy)phenyl]furo[3,2-b]pyridin-2-yl]-N-(1,3-dimethylpiperidin-3-yl)-3-methoxybenzamide]: the IC50 (in test [1] (setting [2]); on TBK1; on IKKε) was under 100 nM each time.

As for `COc1cc(C(=O)NC2(CN(C)C)CCC2)ccc1-c1cc2nccc(-c3ccc(OC4CCOCC4)c(C#N)c3)c2o1` [Compound 368, 4-[7-[3-cyano-4-(oxan-4-yloxy)phenyl]furo[3,2-b]pyridin-2-yl]-N-[1-[(dimethylamino)methyl]cyclobutyl]-3-methoxybenzamide], the values for the concentration for half-maximal inhibition (IC50) (in test [1] (setting [2]); on TBK1; at IKKε) were 100 to 1000 nM, under 100 nM and under 100 nM, respectively.

As to `COc1cc(C(=O)NC2CCC(=O)NC2C)ccc1-c1cc2nccc(-c3ccc(OC4CCOCC4)c(C#N)c3)c2o1` (stereo not drawn) [Compound 369, 4-[7-[3-cyano-4-(oxan-4-yloxy)phenyl]furo[3,2-b]pyridin-2-yl]-3-methoxy-N-(2-methyl-6-oxopiperidin-3-yl)benzamide], the values for the half-inhibitory concentration (IC50) (in test [1] (setting [2]); at TBK1; on IKKε) were 100 to 1000 nM, under 100 nM and under 100 nM, respectively.

Turning to `COc1cc(C(=O)NC2(C)CCN(C)CC2)ccc1-c1cc2nccc(-c3ccc(OC4CCOCC4)c(C#N)c3)c2o1` [Compound 370, 4-[7-[3-cyano-4-(oxan-4-yloxy)phenyl]furo[3,2-b]pyridin-2-yl]-N-(1,4-dimethylpiperidin-4-yl)-3-methoxybenzamide hydrochloride], the results for the IC50 (in test [1] (setting [2]); at TBK1; at IKKε) were 100 to 1000 nM, under 100 nM and under 100 nM, respectively.

Take `COc1cc(C(=O)NC2CC(N3CCCC3)C2)ccc1-c1cc2nccc(-c3ccc(OC4CCOCC4)c(C#N)c3)c2o1` (stereo not drawn) [Compound 371, 4-(7-(3-cyano-4-(tetrahydro-2H-pyran-4-yloxy)phenyl)furo[3,2-b]pyridin-2-yl)-3-methoxy-N-(3-(pyrrolidin-1-yl)cyclobutyl)benzamide]: the results for the IC50 (in test [1] (setting [3]); at TBK1; on IKKε) were 100 to 1000 nM, under 100 nM and under 100 nM, respectively.

In the case of `COc1cc(C(=O)N[C@@]23C[C@@H]2CN(C(C)C)C3)ccc1-c1cc2nccc(-c3ccc(OC4CCOCC4)c(C#N)c3)c2o1` [Compound 372, 4-[7-[3-cyano-4-(oxan-4-yloxy)phenyl]furo[3,2-b]pyridin-2-yl]-3-methoxy-N-[(1S,5R)-3-(propan-2-yl)-3-azabicyclo[3.1.0]hexan-1-yl]benzamide], the results for the IC50 (in test [1] (setting [3]); at TBK1; at IKKε) were 100 to 1000 nM, under 100 nM and under 100 nM, respectively.

For `COc1cc(C(=O)N[C@@H]2CC[C@@H]3CN(C)C[C@@H]32)ccc1-c1cc2nccc(-c3ccc(OC4CCOCC4)c(C#N)c3)c2o1` [Compound 373, N-[(3aR,4R,6aS)-2-methyl-octahydrocyclopenta[c]pyrrol-4-yl]-4-[7-[3-cyano-4-(oxan-4-yloxy)phenyl]furo[3,2-b]pyridin-2-yl]-3-methoxybenzamide], the IC50 (in test [1] (setting [2]); at TBK1; on IKKε) was under 100 nM each time.

Consider `COc1cc(C(=O)N(C)CCO)ncc1-c1cc2nccc(-c3ccc(OC4CCOCC4)c(C#N)n3)c2o1` [Compound 376, 5-[7-[6-cyano-5-(oxan-4-yloxy)pyridin-2-yl]furo[3,2-b]pyridin-2-yl]-N-(2-hydroxyethyl)-4-methoxy-N-methylpyridine-2-carboxamide], for which the IC50 (in test [1] (setting [2]); at TBK1; on IKKε) was under 100 nM throughout.

For `COc1cc(C(=O)N(C)CCO)ncc1-c1cc2nccc(-c3ccc(N4CC[C@H](F)C4)c(C#N)c3)c2o1` [Compound 379, 5-{7-[3-Cyano-4-((S)-3-fluoro-pyrrolidin-1-yl)-phenyl]-furo[3,2-b]pyridin-2-yl}-4-methoxy-pyridine-2-carboxylic acid (2-hydroxy-ethyl)-methyl-amide], the IC50 (in test [1] (setting [2]); on TBK1; on IKKε) was under 100 nM throughout.

Regarding `COc1cc(C(=O)N(C)CCO)ncc1-c1cc2nccc(-c3ccc(N4CC[C@@H](F)C4)c(C#N)c3)c2o1` [Compound 380, 5-{7-[3-Cyano-4-((R)-3-fluoro-pyrrolidin-1-yl)-phenyl]-furo[3,2-b]pyridin-2-yl}-4-methoxy-pyridine-2-carboxylic acid (2-hydroxy-ethyl)-methyl-amide], the IC50 (in test [1] (setting [2]); on TBK1; at IKKε) was under 100 nM in each case.

Consider `COc1cc(C(=O)N(C)C)ncc1-c1cc2nccc(-c3ccc(OC4CCOCC4)c(C#N)n3)c2o1` [Compound 387, 5-[7-[6-cyano-5-(oxan-4-yloxy)pyridin-2-yl]furo[3,2-b]pyridin-2-yl]-4-methoxy-N,N-dimethylpyridine-2-carboxamide hydrochloride], for which the IC50 in test [1] (setting [2]) was 100 to 1000 nM; on TBK1, under 100 nM; on IKKε it was under 100 nM.

For the compound `COc1cc(C(=O)N(C)C)ncc1-c1cc2nccc(-c3cnc(OC4CCOCC4)c(C#N)c3)c2o1` [Compound 388, 5-[7-[5-cyano-6-(oxan-4-yloxy)pyridin-3-yl]furo[3,2-b]pyridin-2-yl]-4-methoxy-N,N-dimethylpyridine-2-carboxamide], the IC50 in test [1] (setting [2]) is 100 to 1000 nM; at TBK1 it was under 100 nM; on IKKε, under 100 nM.

Take `COc1cc(-c2cc3nccc(-c4ccc(OC5CCOCC5)c(C#N)c4)c3o2)ncc1C(=O)N(C)C` [Compound 391, 6-[7-[3-cyano-4-(oxan-4-yloxy)phenyl]furo[3,2-b]pyridin-2-yl]-4-methoxy-N,N-dimethylpyridine-3-carboxamide]: the IC50 in test [1] (setting [3]) is 1000 to 5000 nM; at TBK1 it was 100 to 1000 nM; on IKKε, under 100 nM.

As for `COc1cc(-c2cc3nccc(-c4ccc(OC5CCOCC5)c(C#N)c4)c3o2)cnc1C(=O)N(C)C` [Compound 393, 5-[7-[3-cyano-4-(oxan-4-yloxy)phenyl]furo[3,2-b]pyridin-2-yl]-3-methoxy-N,N-dimethylpyridine-2-carboxamide], the values for the IC50 (in test [1] (setting [2]); at TBK1; at IKKε) were 1000 to 5000 nM, 100 to 1000 nM and under 100 nM, respectively.

For the origin of these results see patent US10428080B2, “TBK/IKK inhibitor compounds and uses thereof” (Merck Patent GmbH, priority 2015, dated 2019).
